Results reported in patent US20140205566A1, “CYCLIC NUCLEUOSIDE DERIVATIVES AND USES THEREOF” (NOVARTIS AG, priority 2012, published 2014).
Read-outs that look alike come from different tables or passages of the source.

What was measured:
dengue virus = assay: Dengue EC50 determination: PBMC infected with virus/humanized 4G2 antibody complex, plaque reduction assay using BHK cells; type: cell-based; conditions: M.O.I of 1, 48 hours, plaque reduction in BHK cells
Experimental: Cryopreserved PBMC (Peripheral Blood Mononuclear Cell) cells were purchased from AllCells, LLC in USA. The cells were then thawed according to manufacturer's instructions and re-suspended in RPMI medium supplemented with 1% penicillin/streptomycin solution and 10% Fetal Calf serum. The cells were then counted and viability checked (viability should be at least 80%). After centrifuging and removing the media, the cells were diluted to 1×10^7 cells/mL in RPMI medium supplemented with 1% penicillin/streptomycin. 50 μl of the cells were then dispensed into 96-well tissue culture plate resulting in 5×10^5 cells/well. Next, virus with humanized 4G2 mixture was prepared for infection. Briefly, virus (2×10^7 pfu/ml) was mixed with humanized 4G2 antibody with the final antibody concentration of 0.38 μg/ml and incubated for 30 minutes at 4° C. to assist virus/antibody complex formation. The virus-antibody complex was then added to the PBMC at multiplicity of infection (M.O.I) of 1. The mixture of cells, virus and antibody was then further incubated in the plates at 37° C. for an hour in the humidified incubator for virus attachment and infection to take place. Serial diluted compounds were then added to the final media volume of 200 μl with 2% Fetal Calf Serum (final PBMC concentration would be 2.5×10^6 cells/mL). The plates were then incubated at 37° C., 5% CO2 for another 48 hours. The extent of the infection and compound inhibition was measured by plaque reduction assay using BHK cells [RD-2004-80036]. Briefly, supernatants of BHK cells grown in 24-well tissue culture (seeded at 200,000 cells/well the night before) were removed and subjected to 200 μl of diluted supernatants derived from PBMC infection containing serial diluted compounds. After incubating it for 37° C. for 1 hour in the incubator, the supernatants were removed and BHK cells overlaid with RPMI media containing 0.8% methyl-cellulose, 0.5% DMSO, 0.05% sodium bicarbonate, 25 mM HEPES, 2% fetal bovine serum and 1% penicillin/streptomycin solution. After additional 4 days of incubation at 37° C. incubator, the monolayer of BHK cells were fixed with 4% paraformaldehyde, stained with crystal violet and plaques counted. The dose response (n=2) is calculated by Prism from Graphpad software using a mathematical curve fitting analysis called nonlinear regression with four independent parameters. Briefly, the software generates the best fit curve using the formula F(x)=((A−D)/(1+((x/C)̂B)))+D. In this formula, x represents the concentration of the compound, A is the minimum value, B represents the steepness of the curve (sometimes known as Hill slope), C is the inflection point and D is the maximum value. EC50 was estimated as the concentration of the compound which will inhibit 50% of the plaque formation. A positive control (7-deaza-2′-C-acetylene-adenosine) was used to ensure the quality of the data.

[1] = Liver S9 stability determination; type: in vitro ADME; conditions: human liver S9 fraction, 1 μM compound, 37° C., up to 120 mins, read-out: liver S9 t1/2
From the text: The liver is the main organ of metabolism and contains a high concentration of drug metabolizing enzymes. Metabolic clearance, particularly hepatic, is one of the main determinants affecting systemic drug exposure following both oral and i.v. administration. To assess the ability of the compounds of the invention to reach a systemic circulation, the hepatic S9 fraction was chosen to test for stability of the compounds. Hepatic S9 fraction was obtained following centrifugation of homogenized liver tissue at 9,000 g. The hepatic S9 fraction is composed of both microsomal and cytosolic fractions and contains all the enzymes contained in microsomes plus additional phase I and phase II cytosolic enzymes.
Stock solutions of each tested compound (100 μM) were prepared in methanol by two subsequent 1:10 dilutions from 10 mM DMSO drug solutions, the final assay concentration was 1 μM. Frozen pooled liver S9 fraction was thawed from −20° C. and diluted in phosphate buffer (with and without NADPH) which was pre-warmed at 37° C. for 10 minutes. The reaction was initiated by addition of compound. Manual sample plates were incubated on a Thermo Max Q 2000 shaker placed in a temperature controlled Sartorius Certomat H hood set at 37° C. Sequential samples were removed at designated timepoints (0, 5, 15, 30, 60 and 120 mins) and quenched with 4 volumes of ice cold acetonitrile (containing internal standard, diazepam), centrifuged and supernatants reconstituted in water (acetonitrile:water, 50:50% v/v). Samples were then analyzed by LCMS/MS or LC-UV to assess parent depletion. In vitro half-life (t1/2) is calculated based on the rate of disappearance of compound from the reaction mixture at incubation timepoints up to 2 hours.

[2] = Stability in liver microsomes; type: in vitro ADME; conditions: human, read-out: liver microsomes t1/2
[3] = CCK8 cytotoxicity assay in HepG2 cells; type: cell-based; conditions: human, CCK-8
Experimental: HepG2 cells were trypsinized, washed, counted and diluted to 1.6×10^4 cells/ml in DMEM-W/O Glucose, supplemented with 10% Fetal bovine serum (FBS), 1% Penicillin/Streptomycin, 2 mM HEPES, 1 mM Sodium Pyruvate, 10 mM Galactose & 2 mM Glutamine. 25 μl of the media containing 400 cells per well were dispensed in clear 384-well tissue culture plate and incubated at room temperature for 30 minutes. The plate was then transferred and placed at 37° C., 5% CO2 humidified incubator overnight. On the next day, serial-diluted compound plates were prepared and 125 nl of compounds at various concentrations were then dispensed into the tissue culture well (200× dilution). The plates were then transferred to 37° C., 5% CO2 humidified incubator for additional 96 hours. Cytotoxicity was measured by CCK-8 assay. Briefly, CCK-8 was thawed on bench top and diluted 2.5× with the growth media. 35 ul of the pre-diluted CCK-8 was then introduced into each well and the plates were then further incubated in 37° C., 5% CO2 humidified incubator for 3 hours. The absorbance was read by Envision at 450 nm. Dose response curves were calculated as in the previous section. The CC50 is estimated as the concentration of the compound which will inhibit 50% of the signal. A positive control (puromycin) was used to ensure the quality of the data.

[4] = CCK8 cytotoxicity assay in THP-1 cells; type: cell-based; conditions: human, CCK-8
Experimental: 4 day cytotoxicity assay using THP-1 cells: THP-1 cells grown in suspension were counted and diluted to 8×10^4 cells/ml in RPMI-1640 media supplemented with 10% fetal bovine serum (FBS) and 1% penicillin/streptomycin. 25 ul of the THP-1 containing media consisting of 2000 cells were dispensed in 384-well tissue culture plate and pre-incubated at room temperature for 30 minutes, followed by 37° C., 5% CO2 overnight in the humidified incubator. On the next day, serial-diluted compound plates were prepared and 125 nl of compounds at various concentrations were then dispensed into the tissue culture well (200× dilution). The plates were then transferred to 37° C., 5% CO2 humidified incubator for additional 96 hours. Cytotoxicity was measured by CCK-8 assay. Briefly, CCK-8 was thawed on bench top and diluted 2.5× with the growth media. 35 ul of the pre-diluted CCK-8 was then introduced into each well and the plates were then further incubated in 37° C., 5% CO2 humidified incubator for 3 hours. The absorbance was read by Envision at 450 nm. Dose response curves were calculated as in the previous section (n=2). The CC50 is estimated as the concentration of the compound which will inhibit 50% of the signal. A positive control (puromycin) was used to ensure the quality of the data.

[5] = Bulk-state stability and thermal conversion of crystalline forms; type: physicochemical; conditions: heated at approximate 142° C.

Structure (SMILES)	EC50 (dengue virus)	CC50 at 96 h [3]	CC50 at 96 h [4]	further results
CCOC(=O)[C@H](C)N[P@@]1(=O)OC[C@H]2O[C@@H](n3cnc4c(N)nc(N)nc43)[C@](C)(F)[C@@H]2O1 [Comparative Example 1, (S)-Ethyl 2-(((2R,4aR,6R,7R,7aR)-6-(2,6-diamino-9H-purin-9-yl)-7-fluoro-7-methyl-2-oxidotetrahydro-4H-furo[3,2-d][1,3,2]dioxaphosphinin-2-yl)amino)propanoate, reference compound]	> 25 µM			
CCOC(=O)[C@H](C)N[P@@]1(=O)OC[C@H]2O[C@@H](n3ccc(=O)[nH]c3=O)[C@](C)(F)[C@@H]2O1 [Comparative Example 2, (S)-ethyl 2-(((2R,4aR,6R,7R,7aR)-6-(2,4-dioxo-3,4-dihydropyrimidin-1(2H)-yl)-7-fluoro-7-methyl-2-oxidotetrahydro-4H-furo[3,2-d][1,3,2]dioxaphosphinin-2-yl)amino)propanoate, reference compound]	> 25 µM			
CCOc1nc(N)nc2c1ncn2[C@@H]1O[C@@H]2CO[P@@](=O)(OC(C)C)O[C@H]2[C@@]1(C)F [Comparative Example 3, (2S,4aR,6R,7R,7aR)-6-(2-amino-6-ethoxy-9H-purin-9-yl)-7-fluoro-2-isopropoxy-7-methyltetrahydro-4H-furo[3,2-d][1,3,2]dioxaphosphinine 2-oxide, reference compound]	> 25 µM			
COc1nc(N)nc2c1ncn2[C@@H]1O[C@H](CO[P@@](=O)(N[C@@H](C)C(=O)OC(C)C)Oc2ccccc2)[C@@H](O)[C@@]1(C)F [Comparative Example 4, (S)-isopropyl 2-(((S)-(((2R,3R,4R,5R)-5-(2-amino-6-methoxy-9H-purin-9-yl)-4-fluoro-3-hydroxy-4-methyltetrahydrofuran-2-yl)methoxy) (phenoxy)phosphoryl)amino)propanoate, reference compound]				half-life at 1 μM [1]: 18 min; half-life [2]: 6 min
CCOc1nc(N)nc2c1ncn2[C@@H]1O[C@@H]2CO[P@](=O)(NCC(=O)OC(C)C)O[C@H]2[C@@]1(C)F [Example 8, isopropyl 2-(((2R,4aR,6R,7R,7aR)-6-(2-amino-6-ethoxy-9H-purin-9-yl)-7-fluoro-7-methyl-2-oxidotetrahydro-4H-furo[3,2-d][1,3,2]dioxaphosphinin-2-yl)amino)acetate]	0.33 µM	> 50 µM	> 50 µM	half-life at 1 μM ([1]; pooled liver S9 fraction): 57.5 min
CCOC(=O)[C@@H](N[P@]1(=O)OC[C@H]2O[C@@H](n3cnc4c(OCC)nc(N)nc43)[C@](C)(F)[C@@H]2O1)C(C)C [Example 11, (S)-ethyl 2-(((2S,4aR,6R,7R,7aR)-6-(2-amino-6-ethoxy-9H-purin-9-yl)-7-fluoro-7-methyl-2-oxidotetrahydro-4H-furo[3,2-d][1,3,2]dioxaphosphinin-2-yl)amino)-3-methylbutanoate]	0.23 µM	> 50 µM	> 50 µM	half-life at 1 μM ([1]; pooled liver S9 fraction): 82 min
COC(=O)[C@H](C)N[P@@]1(=O)OC[C@H]2O[C@@H](n3cnc4c(OC(C)C)nc(N)nc43)[C@](C)(F)[C@@H]2O1 [Example 12, (S)-methyl 2-(((2R,4aR,6R,7R,7aR)-6-(2-amino-6-isopropoxy-9H-purin-9-yl)-7-fluoro-7-methyl-2-oxidotetrahydro-4H-furo[3,2-d][1,3,2]dioxaphosphinin-2-yl)amino)propanoate]	0.43 µM	> 50 µM	> 50 µM	
CCCOc1nc(N)nc2c1ncn2[C@@H]1O[C@@H]2CO[P@](=O)(N[C@@H](C)C(=O)OC)O[C@H]2[C@@]1(C)F [Example 14, (S)-methyl 2-(((2R,4aR,6R,7R,7aR)-6-(2-amino-6-propoxy-9H-purin-9-yl)-7-fluoro-7-methyl-2-oxidotetrahydro-4H-furo[3,2-d][1,3,2]dioxaphosphinin-2-yl)amino)propanoate]	0.18 µM	> 50 µM	> 50 µM	
CCOC(=O)[C@H](C)N[P@@]1(=O)OC[C@H]2O[C@@H](n3cnc4c(OCC)nc(N)nc43)[C@](C)(F)[C@@H]2O1 [Form III, (S)-ethyl 2-(((2R,4aR,6R,7R,7aR)-6-(2-amino-6-ethoxy-9H-purin-9-yl)-7-fluoro-7-methyl-2-oxidotetrahydro-4H-furo[3,2-d][1,3,2]dioxaphosphinin-2-yl)amino)propanoate]				form conversion on heating [5]: converts to Form II crystalline form
